Data taken from ChEMBL document CHEMBL5131494, “Phe19 modification of HDM2-p53 PPI inhibitors to alleviate CYP3A4 metabolism/mechanism-based inhibition liability” (Bioorg Med Chem Lett, 2022).

Tests used:
Cytochrome P450 3A4 [1] = target: T1, Cytochrome P450 3A4 (Homo sapiens, UniProt P08684); assay: Inhibition of CYP3A4 (unknown origin) using testosterone as substrate pretreated with NADPH; format: ADME
Cytochrome P450 3A4 [2] = target: T1, Cytochrome P450 3A4; assay: Inhibition of CYP3A4 (unknown origin) using testosterone as substrate in presence of NADPH; format: ADME
CYP3A4 = CYP3A4 (Homo sapiens, UniProt P08684); assay: Ratio of IC50 for CYP3A4 (unknown origin) co-incubated with NADPH to IC50 for CYP3A4 (unknown origin) pretreated with NADPH; conditions: read-out: Ratio IC50
[3] = target: Tumour suppressor p53/oncoprotein Mdm2 (Homo sapiens, UniProt Q00987); assay: Inhibition of HDM2-p53 (unknown origin) protein-protein interaction by fluorescence polarization peptide displacement assay
Chain of Tumour suppressor p53/oncoprotein Mdm2 (P04637 whole entry): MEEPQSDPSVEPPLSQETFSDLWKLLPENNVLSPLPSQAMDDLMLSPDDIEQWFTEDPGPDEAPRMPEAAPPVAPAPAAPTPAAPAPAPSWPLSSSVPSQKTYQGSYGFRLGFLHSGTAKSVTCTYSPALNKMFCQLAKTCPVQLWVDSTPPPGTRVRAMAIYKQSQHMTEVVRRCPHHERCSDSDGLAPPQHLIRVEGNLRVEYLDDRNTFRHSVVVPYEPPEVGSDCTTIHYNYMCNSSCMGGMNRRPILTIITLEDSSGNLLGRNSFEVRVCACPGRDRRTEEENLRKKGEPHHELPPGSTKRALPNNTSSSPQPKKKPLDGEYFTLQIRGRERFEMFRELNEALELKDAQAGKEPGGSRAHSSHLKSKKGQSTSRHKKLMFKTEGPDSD
Chain of Tumour suppressor p53/oncoprotein Mdm2 (Q00987 whole entry): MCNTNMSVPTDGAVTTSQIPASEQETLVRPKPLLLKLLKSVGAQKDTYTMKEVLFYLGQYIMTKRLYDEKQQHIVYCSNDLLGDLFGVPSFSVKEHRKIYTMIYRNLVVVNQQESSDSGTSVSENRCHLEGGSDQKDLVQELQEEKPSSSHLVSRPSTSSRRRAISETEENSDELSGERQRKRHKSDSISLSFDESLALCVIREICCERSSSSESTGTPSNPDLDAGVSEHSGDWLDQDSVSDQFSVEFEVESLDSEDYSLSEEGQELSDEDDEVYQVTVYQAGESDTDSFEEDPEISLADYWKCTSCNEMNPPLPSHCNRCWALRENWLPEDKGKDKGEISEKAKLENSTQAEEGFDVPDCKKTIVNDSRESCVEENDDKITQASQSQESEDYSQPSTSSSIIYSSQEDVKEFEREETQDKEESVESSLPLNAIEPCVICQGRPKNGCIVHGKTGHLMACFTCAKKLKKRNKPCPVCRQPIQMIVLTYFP

Chain of CYP3A4 (P08684 whole entry): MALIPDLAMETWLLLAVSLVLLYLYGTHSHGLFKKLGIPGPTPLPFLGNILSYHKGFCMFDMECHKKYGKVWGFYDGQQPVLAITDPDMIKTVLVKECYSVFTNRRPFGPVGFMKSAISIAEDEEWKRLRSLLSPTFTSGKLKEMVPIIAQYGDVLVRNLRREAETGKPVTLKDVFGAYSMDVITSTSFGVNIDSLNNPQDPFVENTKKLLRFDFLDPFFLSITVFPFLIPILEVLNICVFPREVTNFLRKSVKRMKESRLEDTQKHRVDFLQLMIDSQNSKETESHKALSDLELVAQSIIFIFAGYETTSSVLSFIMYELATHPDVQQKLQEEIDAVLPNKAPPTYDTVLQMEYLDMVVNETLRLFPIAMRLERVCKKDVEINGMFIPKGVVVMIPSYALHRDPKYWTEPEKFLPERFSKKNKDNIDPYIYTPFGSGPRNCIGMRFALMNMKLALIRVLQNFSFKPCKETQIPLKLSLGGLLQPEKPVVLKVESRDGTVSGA
T1 sequence (P08684 whole entry): as above

SMILES | IC50 (Cytochrome P450 3A4 [1]) | IC50 (Cytochrome P450 3A4 [2]) | IC50 shift (CYP3A4) | IC50 [3]
CCC[C@H]1N(C(=O)c2c(C(F)(F)F)ccnc2OCCN(C)C)CCC[C@@]1(Oc1csc(C(F)(F)F)c1)C(=O)N1CCN(c2ccccc2OCCO)CC1 | 2000 nM | 20000 nM | 10 | 10 nM
CCC[C@H]1N(C(=O)c2cnccc2C(F)(F)F)CCC[C@@]1(Oc1csc(C(F)(F)F)c1)C(=O)N1CCN(c2ccccc2OC)CC1 | 300 nM | 10000 nM | 33 | 30 nM
CCC[C@H]1N(C(=O)c2c(C(F)(F)F)ccnc2O)CCC[C@@]1(Oc1csc(C(F)(F)F)c1)C(=O)N1CCN(c2ccccc2OCCCC(=O)O)CC1 | 50000 nM | 50000 nM | 1 | 11 nM
CCC[C@H]1N(C(=O)c2c(C(F)(F)F)ccnc2O)CCC[C@@]1(Oc1csc(C(F)(F)F)c1)C(=O)N1CCN(c2ccccc2OC)CC1 | 9200 nM | 20000 nM | 2 | 32 nM
CCC[C@H]1N(C(=O)c2c(C(F)(F)F)ccc[n+]2[O-])CCC[C@@]1(Oc1csc(C(F)(F)F)c1)C(=O)N1CCN(c2ccccc2OCCO)CC1 | 1900 nM | 50000 nM | 26 | 22 nM
C=CCOc1nccc(C(F)(F)F)c1C(=O)N1CCC[C@@](Oc2csc(C(F)(F)F)c2)(C(=O)N2CCN(c3ccccc3OCCO)CC2)[C@H]1CCC | 5700 nM | 50000 nM | 9 | 28 nM
CCC[C@H]1N(C(=O)c2c(C(F)(F)F)ccnc2OCC(=O)NC)CCC[C@@]1(Oc1csc(C(F)(F)F)c1)C(=O)N1CCN(c2ccccc2OCCO)CC1 | – | – | – | 246 nM
CCC[C@H]1N(C(=O)c2cc(F)ccc2C(F)(F)F)CCC[C@@]1(Oc1csc(C(F)(F)F)c1)C(=O)N1CCN(c2ccccc2OCCO)CC1 | 600 nM | 50000 nM | 90 | 34 nM
CCC[C@H]1N(C(=O)c2cccnc2C(F)(F)F)CCC[C@@]1(Oc1csc(C(F)(F)F)c1)C(=O)N1CCN(c2ccccc2OCCO)CC1 | – | – | – | 117 nM
CCC[C@H]1N(C(=O)c2c(C(F)(F)F)ccnc2OCCO)CCC[C@@]1(Oc1csc(C(F)(F)F)c1)C(=O)N1CCN(c2ccccc2OCCO)CC1 | 1500 nM | 50000 nM | 33 | 103 nM
CCC[C@H]1N(C(=O)c2c(C(F)(F)F)ccnc2O)CCC[C@@]1(Oc1csc(C(F)(F)F)c1)C(=O)N1CCN(c2ccccc2OCCO)CC1 | 30000 nM | 30000 nM | 1 | 44 nM
CCC[C@H]1N(C(=O)c2cnccc2C(F)(F)F)CCC[C@@]1(Oc1csc(C(F)(F)F)c1)C(=O)N1CCN(c2ccccc2OCCCC(=O)O)CC1 | 900 nM | 20000 nM | 23 | –
CCC[C@H]1N(C(=O)c2ncccc2C(F)(F)F)CCC[C@@]1(Oc1csc(C(F)(F)F)c1)C(=O)N1CCN(c2ccccc2OCCO)CC1 | 200 nM | 35100 nM | 160 | 7 nM
C=CCNc1nccc(C(F)(F)F)c1C(=O)N1CCC[C@@](Oc2csc(C(F)(F)F)c2)(C(=O)N2CCN(c3ccccc3OCCO)CC2)[C@H]1CCC | – | – | – | 1000 nM
CCC[C@H]1N(C(=O)c2ccncc2C(F)(F)F)CCC[C@@]1(Oc1csc(C(F)(F)F)c1)C(=O)N1CCN(c2ccccc2OCCO)CC1 | – | – | – | 66 nM
CCC[C@H]1N(C(=O)c2cnccc2C)CCC[C@@]1(Oc1csc(C(F)(F)F)c1)C(=O)N1CCN(c2ccccc2OCCO)CC1 | 1200 nM | 6900 nM | 6 | 34 nM
CCC[C@H]1N(C(=O)c2cccnc2)CCC[C@@]1(Oc1csc(C(F)(F)F)c1)C(=O)N1CCN(c2ccccc2OCCO)CC1 | – | – | – | 1770 nM
CCC[C@H]1N(C(=O)c2c(C(F)(F)F)ccnc2OCC(=O)O)CCC[C@@]1(Oc1csc(C(F)(F)F)c1)C(=O)N1CCN(c2ccccc2OCCO)CC1 | 4400 nM | 20000 nM | 5 | 25 nM
CCC[C@H]1N(C(=O)c2c(F)cccc2C(F)(F)F)CCC[C@@]1(Oc1csc(C(F)(F)F)c1)C(=O)N1CCN(c2ccccc2OCCO)CC1 | 400 nM | 50000 nM | 126 | 65 nM
CCC[C@H]1N(C(=O)c2cnccc2C(F)(F)F)CCC[C@@]1(Oc1csc(C(F)(F)F)c1)C(=O)N1CCN(c2ccccc2OCCO)CC1 | 300 nM | 6600 nM | – | 15 nM
CCC[C@H]1N(C(=O)c2c(N)cccc2C(F)(F)F)CCC[C@@]1(Oc1csc(C(F)(F)F)c1)C(=O)N1CCN(c2ccccc2OCCO)CC1 | – | – | – | 6800 nM
